Measured values as given in PubChem BioAssay AID248 (DTP/NCI, 2004).
Where “and” joins values, the source holds several entries; their conditions need not be identical. Equal entries are not always repeated. Toxic doses and inconclusive results are not listed.

Test system: L1210 leukemia ip in BDF1 mice, survival T/C
Assay: NCI In Vivo Anticancer Drug Screen. Data for tumor model L1210 Leukemia (intraperitoneal) in B6D2F1 (BDF1) mice
Conditions: endpoint: mean survival time, higher = longer survival
In short: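 In this screen, tumor-bearing mice given compound are compared to those given vehicle, and their survival values are reported as a treated-to-control quotient.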

[1] = dose: 100.0 mg/kg/injection, schedule: Q01DX001 (ip), vehicle: carboxymethylcellulose (CMC)
[2] = dose: 200.0 mg/kg/injection, schedule: Q01DX001 (ip), vehicle: carboxymethylcellulose (CMC)
[3] = dose: 400.0 mg/kg/injection, schedule: Q01DX001 (ip), vehicle: carboxymethylcellulose (CMC)
[4] = dose: 100.0 mg/kg/injection, schedule: Q01DX009 (ip), vehicle: saline
[5] = dose: 100.0 mg/kg/injection, schedule: Q04DX003 (ip), vehicle: saline
[6] = dose: 200.0 mg/kg/injection, schedule: Q04DX003 (ip), vehicle: saline
[7] = dose: 400.0 mg/kg/injection, schedule: Q04DX003 (ip), vehicle: saline
[8] = dose: 100.0 mg/kg/injection, schedule: Q01DX001 (ip), vehicle: Klucel (hydroxypropylcellulose) (HPC)
[9] = dose: 200.0 mg/kg/injection, schedule: Q01DX001 (ip), vehicle: Klucel (hydroxypropylcellulose) (HPC)
[10] = dose: 400.0 mg/kg/injection, schedule: Q01DX001 (ip), vehicle: Klucel (hydroxypropylcellulose) (HPC)
[11] = dose: 100.0 mg/kg/injection, schedule: Q01DX001 (ip), vehicle: saline
[12] = dose: 200.0 mg/kg/injection, schedule: Q01DX001 (ip), vehicle: saline
[13] = dose: 400.0 mg/kg/injection, schedule: Q01DX001 (ip), vehicle: saline
[14] = dose: 100.0 mg/kg/injection, schedule: Q04DX003 (ip), vehicle: Klucel (hydroxypropylcellulose) (HPC)
[15] = dose: 50.0 mg/kg/injection, schedule: Q01DX009 (ip), vehicle: saline
[16] = dose: 100.0 mg/kg/injection, schedule: Q04DX003 (ip), vehicle: other
[17] = dose: 200.0 mg/kg/injection, schedule: Q04DX003 (ip), vehicle: other

O=c1cc(NCc2cccc3ccccc23)[nH]c(=O)[nH]1 was tested, and the T/C (dose: 37.5 mg/kg/injection, schedule: Q01DX001 (ip), vehicle: Klucel (hydroxypropylcellulose) (HPC)) was 97 % of control, the T/C (dose: 75.0 mg/kg/injection, schedule: Q01DX001 (ip), vehicle: Klucel (hydroxypropylcellulose) (HPC)) was 95 % of control and the T/C (dose: 150.0 mg/kg/injection, schedule: Q01DX001 (ip), vehicle: Klucel (hydroxypropylcellulose) (HPC)) was 93 % of control.

With O=C(O)CNCCN1CC(=O)N(Cc2ccccc2)C1=S the T/C [1] was 100 % of control, the T/C (dose: 100.0 mg/kg/injection, schedule: Q01DX009 (ip), vehicle: carboxymethylcellulose (CMC)) was 104 % of control and the T/C (dose: 100.0 mg/kg/injection, schedule: Q04DX002 (ip), vehicle: carboxymethylcellulose (CMC)) was 94 % of control and 103 % of control. The T/C (dose: 100.0 mg/kg/injection, schedule: Q04DX003 (ip), vehicle: carboxymethylcellulose (CMC)) was 100 % of control, the T/C [2] was 103 % of control and the T/C (dose: 200.0 mg/kg/injection, schedule: Q01DX009 (ip), vehicle: carboxymethylcellulose (CMC)) was 93 % of control and 101 % of control. For the same compound, the T/C (dose: 200.0 mg/kg/injection, schedule: Q04DX002 (ip), vehicle: carboxymethylcellulose (CMC)) was 103 % of control and 88 % of control, the T/C (dose: 200.0 mg/kg/injection, schedule: Q04DX003 (ip), vehicle: carboxymethylcellulose (CMC)) was 98 % of control and the T/C [3] was 101 % of control. For the same compound, the T/C (dose: 400.0 mg/kg/injection, schedule: Q01DX009 (ip), vehicle: carboxymethylcellulose (CMC)) was 96 % of control and the T/C (dose: 400.0 mg/kg/injection, schedule: Q04DX002 (ip), vehicle: carboxymethylcellulose (CMC)) was 98 % of control and 103 % of control.

In the case of CNC(=O)CCCCC(=O)NC, the T/C [4] was 107 % of control, the T/C [5] was 103 % of control and the T/C (dose: 200.0 mg/kg/injection, schedule: Q01DX009 (ip), vehicle: saline) was 102 % of control. The T/C [6] was 98 % of control, the T/C (dose: 400.0 mg/kg/injection, schedule: Q01DX009 (ip), vehicle: saline) was 108 % of control and the T/C [7] was 101 % of control.

CC(C)C(C)/C=C/C(C)C1CCC2C3CC=C4CC(O)CCC4(C)C3CCC12C (stereo not given) was tested, and the T/C [8] was 97 % of control, the T/C [9] was 101 % of control and the T/C [10] was 90 % of control.

In the case of O=C(O)C1C2C=CC(CC2)C1C(=O)O (stereo not given), the T/C [5] was 96 % of control, the T/C [6] was 90 % of control and the T/C [7] was 94 % of control.

CCCCCCCCCCC1CCC2C(C1)CC1C3CCCCC3CC21 (stereo not given) was tested, and the T/C [11] was 97 % of control, the T/C [12] was 97 % of control and the T/C [13] was 96 % of control.

O=C(CNC(=O)OCc1ccccc1)Nc1ccc(S(=O)(=O)c2ccc(NC(=O)CNC(=O)OCc3ccccc3)cc2)cc1 was tested, and the T/C (dose: 50.0 mg/kg/injection, schedule: Q01DX001 (ip), vehicle: saline) was 96 % of control, the T/C [11] was 96 % of control and the T/C [12] was 96 % of control. For the same compound, the T/C [13] was 90 % of control.

OC(Cc1ccccc1)(c1ccccc1)c1cccc2ccccc12 (stereo not given) was tested, and the T/C (dose: 100.0 mg/kg/injection, schedule: Q01DX009 (ip), vehicle: Klucel (hydroxypropylcellulose) (HPC)) was 90 % of control, the T/C [14] was 100 % of control and the T/C (dose: 200.0 mg/kg/injection, schedule: Q01DX009 (ip), vehicle: Klucel (hydroxypropylcellulose) (HPC)) was 95 % of control. For the same compound, the T/C (dose: 200.0 mg/kg/injection, schedule: Q04DX003 (ip), vehicle: Klucel (hydroxypropylcellulose) (HPC)) was 109 % of control, the T/C (dose: 400.0 mg/kg/injection, schedule: Q01DX009 (ip), vehicle: Klucel (hydroxypropylcellulose) (HPC)) was 92 % of control and the T/C (dose: 400.0 mg/kg/injection, schedule: Q04DX003 (ip), vehicle: Klucel (hydroxypropylcellulose) (HPC)) was 97 % of control.

With C=CCc1cc(CNCC(C)O)c(O)c(OC)c1 (stereo not given) the T/C (dose: 50.0 mg/kg/injection, schedule: Q04DX003 (ip), vehicle: Klucel (hydroxypropylcellulose) (HPC)) was 95 % of control and the T/C [14] was 93 % of control.

With COc1ccc(OC)c(CCCl)c1 the T/C (dose: 100.0 mg/kg/injection, schedule: Q01DX001 (ip), vehicle: acetone) was 91 % of control, the T/C (dose: 200.0 mg/kg/injection, schedule: Q01DX001 (ip), vehicle: acetone) was 93 % of control and the T/C (dose: 400.0 mg/kg/injection, schedule: Q01DX001 (ip), vehicle: acetone) was 88 % of control.

In the case of Nn1cnnc1, the T/C (dose: 25.0 mg/kg/injection, schedule: Q01DX009 (ip), vehicle: saline) was 93 % of control, the T/C [15] was 103 % of control and the T/C [4] was 86 % of control and 88 % of control. For the same compound, the T/C [5] was 104 % of control, the T/C [6] was 96 % of control and the T/C [7] was 102 % of control.

In the case of NCC(N)C(=O)O (stereo not given), the T/C [11] was 94 % of control, the T/C [12] was 97 % of control and the T/C [13] was 94 % of control.

In the case of CNc1ccc(N=Nc2ccncc2C)cc1C, the T/C (dose: 100.0 mg/kg/injection, schedule: Q04DX003 (ip), vehicle: saline with Tween-80) was 102 % of control, the T/C (dose: 200.0 mg/kg/injection, schedule: Q04DX003 (ip), vehicle: saline with Tween-80) was 96 % of control and the T/C (dose: 400.0 mg/kg/injection, schedule: Q04DX003 (ip), vehicle: saline with Tween-80) was 96 % of control.

With CC1(C)N=C(N)N=C(N)N1c1cccc(Br)c1 the T/C (dose: 2.5 mg/kg/injection, schedule: Q01DX Z (ip), vehicle: saline) was 121 % of control, the T/C (dose: 11.0 mg/kg/injection, schedule: Q01DX Z (ip), vehicle: carboxymethylcellulose (CMC)) was 117 % of control and the T/C (dose: 16.0 mg/kg/injection, schedule: Q01DX Z (ip), vehicle: saline) was 162 % of control. For the same compound, the T/C (dose: 25.0 mg/kg/injection, schedule: Q01DX Z (ip), vehicle: saline) was 168 % of control, the T/C (dose: 37.0 mg/kg/injection, schedule: Q01DX Z (ip), vehicle: carboxymethylcellulose (CMC)) was 105 % of control and the T/C (dose: 50.0 mg/kg/injection, schedule: Q01DX Z (ip), vehicle: methylcellulose (MC)) was 97 % of control. The T/C (dose: 60.0 mg/kg/injection, schedule: Q01DX Z (ip), vehicle: carboxymethylcellulose (CMC)) was 107 % of control, the T/C (dose: 75.0 mg/kg/injection, schedule: Q01DX001 (ip), vehicle: other) was 103 % of control and the T/C (dose: 90.0 mg/kg/injection, schedule: Q01DX Z (ip), vehicle: carboxymethylcellulose (CMC)) was 90 % of control. For the same compound, the T/C (dose: 150.0 mg/kg/injection, schedule: Q01DX001 (ip), vehicle: other) was 108 % of control.

With O=C1C(c2ccccc2)=Nc2ccccc21 the T/C (dose: 100.0 mg/kg/injection, schedule: Q04DX002 (ip), vehicle: saline with Tween-80) was 88 % of control, the T/C (dose: 200.0 mg/kg/injection, schedule: Q04DX002 (ip), vehicle: saline with Tween-80) was 88 % of control and the T/C (dose: 400.0 mg/kg/injection, schedule: Q04DX002 (ip), vehicle: saline with Tween-80) was 90 % of control.

In the case of CCC1(O)CCCC1, the T/C (dose: 50.0 mg/kg/injection, schedule: Q01DX001 (ip), vehicle: carboxymethylcellulose (CMC)) was 95 % of control, the T/C [1] was 92 % of control and the T/C [2] was 92 % of control. For the same compound, the T/C [3] was 97 % of control.

NC(=O)OCCI was tested, and the T/C [15] was 105 % of control, the T/C (dose: 50.0 mg/kg/injection, schedule: Q04DX003 (ip), vehicle: other) was 101 % of control and the T/C [16] was 121 % of control. The T/C [17] was 119 % of control.

CN(C)S(=O)(=O)c1ccc(NC(=O)C(Cl)Cl)cc1 was tested, and the T/C (dose: 100.0 mg/kg/injection, schedule: Q01DX001 (ip), vehicle: other) was 100 % of control, the T/C (dose: 100.0 mg/kg/injection, schedule: Q01DX009 (ip), vehicle: saline with Tween-80) was 100 % of control and the T/C [16] was 103 % of control. For the same compound, the T/C (dose: 200.0 mg/kg/injection, schedule: Q01DX001 (ip), vehicle: other) was 107 % of control, the T/C (dose: 200.0 mg/kg/injection, schedule: Q01DX009 (ip), vehicle: saline with Tween-80) was 100 % of control and the T/C [17] was 101 % of control. The T/C (dose: 400.0 mg/kg/injection, schedule: Q01DX001 (ip), vehicle: other) was 100 % of control, the T/C (dose: 400.0 mg/kg/injection, schedule: Q01DX009 (ip), vehicle: saline with Tween-80) was 86 % of control and the T/C (dose: 400.0 mg/kg/injection, schedule: Q04DX003 (ip), vehicle: other) was 101 % of control.

For CCCCCN1C(=O)NC(=O)C(Cl)C1=O (stereo not given), the T/C [11] was 89 % of control.

CC(=O)OCOC1C(COC(C)=O)OCOC(COC(C)=O)C1OCOC(C)=O (stereo not given) was tested, and the T/C [8] was 103 % of control, the T/C [9] was 103 % of control and the T/C [10] was 110 % of control.
